Results published in patent US5322850A, “Antiallergic piperidine derivatives of benzimidazole” (Fabrica Espanola de Productos Quimicos y Farmaceuticos, S.A., priority 1992, dated 1994).
Several values for one entry are separate records, joined by “and”; a condition that tells them apart may be missing. Equal values may be shown once.

Key:
H1 [1] = experiment: H1-antihistaminic activity in vivo: vascular permeability increase induced by histamine in rats; parameters: species or system rat (female Wistar)
Description: H1 -antihistaminic activity in vivo: Vascular permeability increase induced by histamine in rats.
Female Wistar rats (120-150 g) were used. They were fasted for 18 hours prior to the assay. […] 30 min after the dye injection, animals were sacrificed and the skin was removed. The extravasated dye sites were extracted with formamide and the dye spectrophotometrically evaluated.

[2] = tested on: homologous passive cutaneous anaphylaxis (PCA); experiment: Antiallergic activity in vivo: vascular permeability increase induced by 48 hours homologous passive cutaneous anaphylaxis (PCA) in rats; parameters: species or system rat (female Wistar)
Description: Antiallergic activity in vivo: Vascular permeability increase induced by 48 hours homologous passive cutaneous anaphylaxis (PCA) in rats. Female Wistar rats (120-150 g) were used. They were sensitized passively by intradermic injections of homologous ovoalbumin antiserum on both sides of the middle shaved-back line of the rat. Forty-eight hours later each test compound was administered orally at doses of 1 mg/kg (5 mg/kg when R^1 is a methyl group) and 1 h later PCA reaction was induced by iv injection of Evans blue solution and ovoalbumin in PSS solution. The animals were sacrificed 30 minutes after the dye injection and the skin was removed. The extravasated dye sites were extracted with formamide and the dye spectrophotometrically evaluated.

H1 [3] = target: H1 (Cavia porcellus, UniProt P31389); experiment: H1-antihistaminic activity in vitro: histamine-induced contractions of isolated guinea-pig ileum; conditions: pH 7.4, 37° C., 20 min after antagonist, (n) given
Chain of H1 (Cavia porcellus, UniProt P31389) (P31389 whole entry): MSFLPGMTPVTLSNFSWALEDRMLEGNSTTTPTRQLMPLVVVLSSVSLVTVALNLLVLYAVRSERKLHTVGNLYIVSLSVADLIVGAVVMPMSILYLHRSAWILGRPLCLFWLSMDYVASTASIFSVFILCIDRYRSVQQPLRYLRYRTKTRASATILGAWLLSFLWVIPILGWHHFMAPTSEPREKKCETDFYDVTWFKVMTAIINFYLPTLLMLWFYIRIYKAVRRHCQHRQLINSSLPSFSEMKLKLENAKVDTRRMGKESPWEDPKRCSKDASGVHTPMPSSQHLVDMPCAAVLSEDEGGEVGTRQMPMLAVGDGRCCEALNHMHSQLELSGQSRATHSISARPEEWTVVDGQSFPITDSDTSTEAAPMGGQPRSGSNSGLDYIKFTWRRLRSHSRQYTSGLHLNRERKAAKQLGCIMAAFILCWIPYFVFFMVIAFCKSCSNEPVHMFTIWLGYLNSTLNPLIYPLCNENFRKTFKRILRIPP
Description: H1 -antihistaminic activity in vitro: Histamine-induced contractions of isolated guinea-pig ileum.
Distal ileum was obtained from male albino guinea pig (300-500 g). All animals were fasted overnight and killed by cervical dislocation and then exsanguinated. […] The tissue was washed by upward displacement of the bathing fluid. With an effective 1.2 g loading tension, the ileum was kept for 45 min (stabilization period). An accumulative dose-response curve for histamine was isotonically recorded with increasing concentrations and the tissue, after washing with Tyrode solution, was allowed to equilibrate. Twenty minutes later a second concentration-response curve was obtained previous addition of different concentrations of antagonist drugs. The results were calculated from the concentration-response curves for histamine at each drug concentration. All the concentrations were tested 2 to 4 times.

CNS = experiment: Preliminary study similar to Irwin's test in mice: effect on CNS; format: in vivo; parameters: key: --: If no effects were detected, no figures are shown
Description: A preliminary study similar to Irwins's test in mice was carried out at doses of 100 and 300 mg/kg at 1, 2, 3, 4 and 24 hours after the treatment. As reference ketotifene was used.

[4] = rat, oral, 1 mg/kg, 1 hour before histamine
[5] = rat, oral, 1 mg/kg, 1 h before PCA reaction
[6] = 100 mg/kg, 1, 2, 3, 4 and 24 hours
[7] = 300 mg/kg, 1, 2, 3, 4 and 24 hours

SMILES	Inhibition of the increase of vascular permeability by Histamine (H1 [1]; [4]) [%]	Inhibition of the increase of vascular permeability by P.C.A. [2, 5] [%]	pD'2 (H1 [3])	Convulsions (CNS; [6])	Death (CNS; [6])	Hypothermia (CNS; [6])	Loss of pinneal reflex (CNS; [6])	Loss of right-time reflex (CNS; [6])	Palpebral Ptosis (CNS; [6])	Spontaneous Activity decrease (CNS; [6])	Convulsions (CNS; [7])	Death (CNS; [7])	Hypothermia (CNS; [7])	Loss of pinneal reflex (CNS; [7])	Loss of right-time reflex (CNS; [7])	Palpebral Ptosis (CNS; [7])	Spontaneous Activity decrease (CNS; [7])	Inhibition of the increase of vascular permeability by Histamine (H1 [1]; po, 5 mg/kg) [%]	Inhibition of the increase of vascular permeability by P.C.A. ([2]; po, 5 mg/kg) [%]	Spontaneous Activity decrease (CNS; 300 mg/kg, 1, 2, 3, 4 and 24 hours, 300 mg/kg)
CCOCCn1c(C2CCN(Cc3ccc(C(C)(C)C)cc3)CC2)nc2ccccc21 [1 CH2 CH3]	70	47	7.08	--	--	--	--	--	--	--	4/4	--	--	--	--	--	4/4			
COCCn1c(C2CCN(Cc3ccc(C(C)(C)C)cc3)CC2)nc2ccccc21 [1 CH3, 2-[1-((4-(1,1-dimethylethyl)phenyl)methyl)piperidine-4-yl]-1-(2-methoxyethyl)-1H-benzimidazole]			6.75	--	--	2/4	--	--	--	3/4	4/4	4/4	4/4	4/4	4/4	4/4	4/4	70	70	
CC(C)OCCn1c(C2CCN(Cc3ccc(C(C)(C)C)cc3)CC2)nc2ccccc21 [1 CH(CH3)2, 2-[1-((4-(1,1-dimethylethyl)phenyl)methyl)piperidin-4-yl]-1-[(2-(1-methylethoxy)ethyl)]-1H-benzimidazole]	50	40	7.30	--	--	--	--	--	--	--	--	--	--	--	--	--	--			
CCOCCn1c(C2CCN(CCc3ccc(C(C)(C)C)cc3)CC2)nc2ccccc21 [2 CH2 CH3, 2-[1-(2-(4-(1,1-dimethylethyl)-phenyl)ethyl)piperidin-4-yl]-1-(2-ethoxyethyl)-1H-benzimidazole]	60	40	7.52	--	--	--	--	--	--	--	--	--	--	--	--	--				-- and 2/4
CC(C)OCCn1c(C2CCN(CCc3ccc(C(C)(C)C)cc3)CC2)nc2ccccc21 [2 CH(CH3)2, 2-[1-(2-(4-(1,1-dimethylethyl)-phenyl)ethyl)piperidin-4-yl]-1-[2-(1-methylethoxy)ethyl]-1H-benzimidazole]	25	30	7.00																	
COc1ccc(CCN2CCC(Nc3nc4ccccc4n3Cc3ccc(F)cc3)CC2)cc1 [Astemizole, reference compound]		38																		
CN1CCC(=C2c3ccccc3CC(=O)c3sccc32)CC1 [Ketotifene, reference compound]				--	--	--	--	--	--	--	--	--	1/4	--	1/4	1/4	2/4			
CC(C)(C)c1ccc(C(O)CCCN2CCC(C(O)(c3ccccc3)c3ccccc3)CC2)cc1 (stereo not shown) [Terfenadine, reference compound]	20	37																		
